# According to US12691070B2, “Cationic lipids and preparation method thereof” (RiboX Therapeutics HK Limited, priority 2023, dated 2026):
# Assays:
# MCP-I = MCP-I cytokine elevation in serum; assay type: in vivo; settings: cirRNA (SEQ ID NO: 1) LNPs, mice
# Experimental: 6-8 week old, female BALB/C mice were injected with 0.5 mg*kg-1 of RNA LNPs by intravenous injection. At 2 and 24 hours post injection, animals were bled and sera concentrations of MCP-I were determined by an immunoassay (Luminex).
# RAW 264.7 cells [1] = assay: In vitro expression of firefly-luciferase, RAW 264.7; assay type: cell-based
# In short: (§1)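 Both cell lines receive RNA-LNPs carrying firefly-luciferase RNA at 100 ng/mL. Lysis follows washing at 72 h post-transfection, and luciferase activity is then quantified on a luminometer using a commercial luciferase assay reagent.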
# RAW 264.7 cells [2] = assay: In vitro toxicity (CellTiter-Glo cell viability), RAW 264.7; assay type: cell-based;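 further: percent of untreated cells luminescence signal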
# In short: (§2)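 Viability after a 72 h incubation with 1 μg/mL RNA-LNP formulations was assessed luminometrically using CellTiter-Glo.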
# [3] = system: Alanine Aminotransferase (ALT); assay: Liver enzyme elevation in serum, ALT; assay type: in vivo; settings: cirRNA (SEQ ID NO: 1) LNPs, BALB/C mice, intravenous 0.5 MPK
# Experimental: (§3) 6-8 week old, female BALB/C mice were injected with 0.5 mg*kg-1 of RNA LNPs by intravenous injection. At 2 and 24 hours post injection, animals were bled and sera concentrations of Alanine Aminotransferase (ALT) and Aspartate Aminotransferase (AST) were determined by a blood chemistry analyzer.
# [4] = RNA encapsulation efficacy by Quant-IT Ribogreen kit; assay type: physicochemical; settings: for Encapsulation Efficiency %: LNP with cirRNA (SEQ ID NO: 1); for Encapsulation Efficiency: LNP with mRNA (SEQ ID NO: 2)
# In short: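 Ribogreen read-out: encapsulation = 100% − (signal of intact RNA-LNPs / signal with Triton X-100). Particles: ionizable lipid:DSPC:Chol:DMG-PEG2000 50:10:38.5:1.5, ionizable lipid:ribonucleotide 15 or 6, final lipid 1.5–6 mM, PBS-dialyzed.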
# [5] = system: Aspartate Aminotransferase (AST); assay: Liver enzyme elevation in serum, AST; assay type: in vivo; settings: cirRNA (SEQ ID NO: 1) LNPs, BALB/C mice, intravenous 0.5 MPK
# Experimental: as §3
# BALB/C mice [6] = assay: Local tolerance determination by footpad injection; assay type: in vivo; settings: cirRNA (SEQ ID NO: 1) LNP, 0.175 mg*kg-1 subcutaneous into the footpad, 24 hours post minus prior
# Experimental: 6-8 week old, female BALB/C mice were injected with 0.175 mg*kg-1 RNA LNPs by subcutaneous injection into the footpad. Prior to, and 24 hours post injections, injected footpad thickness was determined by a caliper.
# [7] = LNP size and polydispersity index (PDI) by dynamic light scattering; assay type: physicochemical; settings: for Size: in nm (unit assumed)
# In short: (§4)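 Ribogreen fluorescence with and without Triton X-100 gave encapsulation as 100% − (intact/lysed) signal; DLS size, PDI and zeta potential measured on a Zetasizer. Particles: 50:10:38.5:1.5 lipid mix, luciferase circRNA or mRNA, lipid:nucleotide 15 or 6, microfluidic assembly at pH 4.5, PBS-dialyzed.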
# Hep G2 cells [8] = assay: In vitro expression of firefly-luciferase, Hep G2; assay type: cell-based
# In short: as §1
# Hep G2 cells [9] = assay: In vitro toxicity (CellTiter-Glo cell viability), Hep G2; assay type: cell-based;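 further: percent of untreated cells luminescence signal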
# In short: as §2
# [10] = LNP zeta potential (Zetasizer); assay type: physicochemical
# In short: as §4
# BALB/C mice [11] = assay: In vivo expression, whole-body luminescence (IVIS)
# Experimental: 6-8 week old, female BALB/C mice were injected with 0.05 mg*kg-1 of RNA-LNPs encoding for firefly-luciferase by intravenous injection. At 6 hours post injection, animals were intraperitoneally injected with 15 mg/ml of Luciferin substrate and whole-body luminescence was determined by a bioluminescent in vivo imaging system (IVIS).
# [12] = cirRNA (SEQ ID NO: 1) LNPs, firefly-luciferase luminescence, RAW 264.7 cells
# [13] = mRNA (SEQ ID NO: 2) LNP, 100 ng/mL, 72 hours post transfection, luciferase activity
# [14] = cirRNA (SEQ ID NO: 1) LNPs, RAW 264.7 cells
# [15] = mRNA (SEQ ID NO: 2) LNP, 1 μg/mL, 72 hours post transfection
# [16] = cirRNA (SEQ ID NO: 1) LNPs, firefly-luciferase luminescence, Hep G2 cells
# [17] = cirRNA (SEQ ID NO: 1) LNPs, Hep G2 cells
# [18] = cirRNA (SEQ ID NO: 1) LNPs, BALB/C mice
# [19] = mRNA (SEQ ID NO: 2) LNP, 0.05 mg*kg-1 intravenous, 6 hours post injection
MCP-I in Sera 2 hours After 0.5 MPK Injection (MCP-I),Encapsulation Efficiency % [4],Encapsulation Efficiency [4],PDI ([7]; LNP with cirRNA (SEQ ID NO: 1)),Size ([7]; LNP with cirRNA (SEQ ID NO: 1)),PDI ([7]; LNP with mRNA (SEQ ID NO: 2)),Size ([7]; LNP with mRNA (SEQ ID NO: 2)),Compound,In vitro Expression RAW (RAW 264.7 cells [1]; [12]),In vitro Expression RAW (RAW 264.7 cells [1]; [13]),In vitro Viability RAW (RAW 264.7 cells [2]; [14]),In vitro Viability RAW (RAW 264.7 cells [2]; [15]),ALT in Sera (IU/L) 2 hours After 0.5 MPK Injection [3],ALT in Sera (IU/L) 24 hours After 0.5 MPK Injection [3],AST in Sera (IU/L) 2 hours After 0.5 MPK Injection [5],AST in Sera (IU/L) 24 hours After 0.5 MPK Injection [5],"Footpad Thickness (24 h−0 h, mm) (BALB/C mice [6])",In vitro Expression HepG2 (Hep G2 cells [8]; [16]),In vitro Expression HepG2 (Hep G2 cells [8]; [13]),In vitro Viability HepG2 (Hep G2 cells [9]; [17]),In vitro Viability HepG2 (Hep G2 cells [9]; [15]),other results
7009.50 pg/mL,96%,93.16%,0.06,87.2,0.03302,106.5,"CCCCCCCCC(CCCCCC)C(=O)OCCCCCCCCN(CCCCCCCCOC(=O)C(CCCCCC)CCCCCCCC)CCOC(=O)NCCN(C)C (stereo not shown) [Lipid 6, 10-(8-((2-hexyldecanoyl)oxy)octyl)-2-methyl-6-oxo-7-oxa-2,5,10-triazaoctadecan-18-yl 2-hexyldecanoate]",1.11E+07,1.21E+07,100%,77%,99.33 IU/L,181.67 IU/L,316.00 IU/L,411.00 IU/L,0.44 mm,1.82E+08,2.28E+08,89%,113%,MCP-I in Sera 24 hours After 0.5 MPK Injection (MCP-I): 1653.42 pg/mL; Zeta (mV) ([10]; LNP with cirRNA (SEQ ID NO: 1)): −2.24 mV; Zeta (mV) ([10]; LNP with mRNA (SEQ ID NO: 2)): 4.201 mV; In vivo Expression (Whole Body) (BALB/C mice [11]; [18]): 1.21E+09; In vivo Expression (Whole Body) (BALB/C mice [11]; [19]): 1.91E+09
5561.83 pg/mL,95%,88%,0.04,91.2,0.09046,67.1,"CCCCCCCCC(CCCCCC)C(=O)OCCCCCCCCN(CCCCCCCCCCC(=O)OCCCCCC)CCOC(=O)NCCN(C)C (stereo not shown) [Lipid 43, hexyl 10-(8-((2-hexyldecanoyl)oxy)octyl)-2-methyl-6-oxo-7-oxa-2,5,10-triazahenicosan-21-oate]",1.10E+05,9.60E+04,97%,88%,57.07 IU/L,41.53 IU/L,135.60 IU/L,88.97 IU/L,0.33 mm,1.75E+04,1.33E+06,97%,97%,MCP-I in Sera 24 hours After 0.5 MPK Injection (MCP-I): 17.57 pg/mL; Zeta (mV) ([10]; LNP with cirRNA (SEQ ID NO: 1)): 1.26 mV; Zeta (mV) ([10]; LNP with mRNA (SEQ ID NO: 2)): 12.6 mV; In vivo Expression (Whole Body) (BALB/C mice [11]; [18]): 6.22E+08; In vivo Expression (Whole Body) (BALB/C mice [11]; [19]): 1.98E+08
3296.20 pg/mL,97%,89%,0.04,89.19,0.1368,79.21,"CCCCCCCCCCC(CCCCCCCC)COC(=O)CCCCCN(CCCCCCCCOC(=O)C(CCCCCC)CCCCCCCC)CCOC(=O)NCCN(C)C (stereo not shown) [Lipid 51, 2-octyldodecyl 10-(8-((2-hexyldecanoyl)oxy)octyl)-2-methyl-6-oxo-7-oxa-2,5,10-triazahexadecan-16-oate]",8.74E+06,2.63E+06,104%,80%,71.07 IU/L,45.50 IU/L,193.77 IU/L,94.73 IU/L,1.11 mm,9.85E+05,4.66E+07,88%,83%,MCP-I in Sera 24 hours After 0.5 MPK Injection (MCP-I): 562.40 pg/mL; Zeta (mV) ([10]; LNP with cirRNA (SEQ ID NO: 1)): −0.71 mV; Zeta (mV) ([10]; LNP with mRNA (SEQ ID NO: 2)): 3.197 mV; In vivo Expression (Whole Body) (BALB/C mice [11]; [18]): 6.85E+08; In vivo Expression (Whole Body) (BALB/C mice [11]; [19]): 1.78E+09
7911.52 pg/mL,96%,88.25%,0.05,86.66,0.09823,75.46,"CCCCCCCCC(CCCCCCCC)OC(=O)CCCCCCCN(CCCCCCCCOC(=O)C(CCCCCC)CCCCCCCC)CCOC(=O)NCCN(C)C (stereo not shown) [Lipid 66, heptadecan-9-yl 10-(8-((2-hexyldecanoyl)oxy)octyl)-2-methyl-6-oxo-7-oxa-2,5,10-triazaoctadecan-18-oate]",9.90E+06,6.79E+06,100%,72%,51.97 IU/L,63.6 IU/L,176.40 IU/L,148.60 IU/L,1.43 mm,9.78E+07,1.59E+08,93%,82%,MCP-I in Sera 24 hours After 0.5 MPK Injection (MCP-I): 448.43 pg/mL; Zeta (mV) ([10]; LNP with cirRNA (SEQ ID NO: 1)): −2.1 mV; Zeta (mV) ([10]; LNP with mRNA (SEQ ID NO: 2)): 2.213 mV; In vivo Expression (Whole Body) (BALB/C mice [11]; [18]): 2.03E+09; In vivo Expression (Whole Body) (BALB/C mice [11]; [19]): 3.50E+09
129.34 pg/mL,92%,88%,0.12,57.94,0.1057,61.9,"CCCCC/C=C\C/C=C\CCCCCCCCN(CCCCCCCC/C=C\CCCCCCCC)CCOC(=O)NCc1ncc[nH]1 [Lipid 68, 2-(((Z)-octadec-9-en-1-yl)((9Z,12Z)-octadeca-9,12-dien-1-yl)amino)ethyl ((1H-imidazol-2-yl)methyl)carbamate]",6.86E+05,5.58E+02,67%,104%,40.77 IU/L,33.37 IU/L,81.27 IU/L,60.20 IU/L,1.00 mm,2.63E+06,3.74E+03,99%,100%,Zeta (mV) ([10]; LNP with cirRNA (SEQ ID NO: 1)): −0.647 mV; Zeta (mV) ([10]; LNP with mRNA (SEQ ID NO: 2)): 5.641 mV; In vivo Expression (Whole Body) (BALB/C mice [11]; [18]): 1.34E+08; In vivo Expression (Whole Body) (BALB/C mice [11]; [19]): 1.54E+08
